Key:
[1] = tested on: human umbilical vein endothelial cells (HUVECs); assay: Microfilament skeleton of HUVECs by confocal microscope; format: cell-based; details: 10, 25, 100 μg/ml; 48, 72, 96 hours
Description: Human umbilical cord samples (obtained from Beijing Obstetrics & Gynecology Hospital) was digested with 0.1% collagenase I (available from GIBCO BRL company), followed by a centrifugation (1000 rpm, 10 minutes) to collect human umbilical vein endothelial cells (HUVECs). After suspended in 20% FCS/RPMI1640, the cells were transferred into plastic bottles for culture in CO2 incubator (37° C., 5% CO2). Twelve hours later, unattached cells were discarded by changing medium, and then the remaining cells were cultured conventionally with the medium changed every 3 days. The cultured HUVECs were digested with 0.04% trypsin-EDTA, and inoculated into 24-well plate at 2×10^4 cells/well; and the vehicle (PBS) and FpAT (10 μg/ml, 25 μg/ml, 100 μg/ml) were added separately, with 3 parallel wells per group. […] After washing twice with PBS, Hoechst was added to stain nucleus. After washed once with PBS, the slide was mounted with mounting solution, and stored at 4° C. in the dark. The change of cytoskeleton was observed employing a confocal microscope.

[2] = tested on: human colon cancer HT-29 cells; assay: Tumor suppression in human colon cancer HT-29 tumor-bearing nude mice model; format: in vivo, Balb/c nude mice; details: 50 μg/100 μl PBS/injection, angulus oculi medialis vein once every other day, 10 times; vs vehicle, P<0.05
Description: In order to confirm the biological effects of FpAT on the growth of human deriving tumors in nude mice in vivo, a tumor suppression experiment was carried out in this example using human gastric carcinoma BGC-823 cells tumor-bearing nude mice model, human lung cancer PG cells tumor-bearing nude mice model and human colon cancer HT-29 cells tumor-bearing nude mice model.
Twenty 5-week old Balb/c nude mice purchased from Animal Center Of Chinese Academy Of Medical Sciences were inoculated subcutaneously in forelimb with human gastric carcinoma BGC-823 cells (National Institute for the Control of Pharmaceutical and Biological Products) (5×10^6/100 μl/mouse), human lung cancer PG cells (National Institute for the Control of Pharmaceutical and Biological Products) (5×10^6/100 μl/mouse) or human colon cancer HT-29 cells (ATCC® Number: HTB-38™) (5×10^6/100 μl/mouse). On the next day after inoculation, each kind of inoculated cells were divided into 2 groups randomly with 5 mice per group. […] Observation was continued for another 20 days after administration was stopped, and during this period the long and short diameters of the tumors were measured with a vernier caliper once every three days, and the volumes of the tumor mass were calculated according to formula ½×long diameter×short diameter^2. […]

[3] = tested on: mice liver cancer H22 cells; assay: Tumor suppression by FpAT and derivative peptides in liver cancer H22 tumor-bearing mouse model (Example 14); format: in vivo, mice of Kunming strain; details: peptides 50 μg/100 μl PBS/injection, angulus oculi medialis vein daily, 7 times; CTX 80 mg/KG; tumors weighed
Description: Ninety 5-week old mice of Kunming strain purchased from Animal Center Of Chinese Academy Of Medical Sciences were inoculated subcutaneously in forelimb with mice liver cancer H22 cells (National Institute for the Control of Pharmaceutical and Biological Products) (5×10^6/100 μl/mouse). On the next day after inoculation, each kind of inoculated cells were divided randomly into […] with 10 mice per group. FpAT (50 μg/100 μl PBS/injection) and 7 kinds of derivative peptides thereof (see Table 5 below for detailed sequence):FpAT-N3d, FpAT-N6d, FpAT-N9d, FpAT-C3d, FpAT-C6d, FpAT-C9d, FpAT-N5d-C4d, and vehicle control (PBS:100 μl/injection) were injected in angulus oculi medialis vein, with CTX (cyclophosphamide) (80 mg/KG) as positive control daily, 7 times in total. The mice were sacrificed by dislocating the neck on the next day after administration was stopped, and the tumors were taken and weighed for a statistical analysis.

[4] = tested on: human umbilical vein endothelial cells (HUVECs); assay: Three-dimensional tubular structure formation of HUVECs; format: cell-based; details: 10, 25, 100 μg/ml PBS; 48, 72, 96 hours
Description: Human umbilical cord samples (obtained from Beijing Obstetrics & Gynecology Hospital) was digested with 0.1% collagenase I (available from GIBCO BRL company), followed by a centrifugation (1000 rpm, 10 minutes) to collect human umbilical vein endothelial cells (HUVECs). After suspended in 20% FCS/RPMI1640, the cells were transferred into plastic bottles for culture in CO2 incubator (37° C., 5% CO2). Twelve hours later, unattached cells were discarded by changing medium, and then the remaining cells were cultured conventionally with the medium changed every 3 days. The cultured HUVECs were digested with 0.04% trypsin-EDTA, and inoculated into 24-well plate at 2×10^4 cells/well; and the vehicle (PBS) and FpAT (10 μg/ml PBS, 25 μg/ml PBS, 100 μg/ml PBS) were added separately, with 3 parallel wells per group.

H2N-Asp-Ser-Gly-Glu-Gly-Asp-Phe-Leu-Ala-Glu-Gly-Gly-Gly-Val-Arg-COOH (H-DSGEGDFLAEGGGVR-OH; listed as Homo sapiens) [FpAT, fibrinopeptide A truncated, carboxyl terminal 15 amino acids of fibrinopeptide A]
microfilament disassembly in HUVECs [1]: can induce the microfilament disassembly | growth of human colon cancer HT-29 cells in nude mice (tumor mass) [2]: could suppress the growths | tumor suppressing rate [3]: 65.4% | ability to form a three-dimensional and tubular structure of HUVECs [4]: can suppress specifically

— US8377883B2, “Peptide for anti-angiogenesis and use thereof” (Beijing Institute for Cancer Research, priority 2006, dated 2013)
